According to US11633421B2, “Use of NAD precursors for improving maternal health and/or offspring health” (UNIVERSITY OF IOWA RESEARCH FOUNDATION, priority 2016, dated 2023):

Key:
Format in all cases: in vivo, mice
[1] = Post-partum NR supplementation: maternal body mass, food consumption, body composition; conditions: NR only after birth
Description: FIGS. 6A-D. NR-supplemented mouse mothers lose weight during the 21 day lactation period without diminished food consumption (day 7-21). Delta body mass refers to day 21 post-partum maternal weight minus day 0 post-partum weight (FIG. 6A). Food consumption was day 7-21 (FIG. 6B). NR-supplemented mothers tend to lose fat (FIG. 6C) and maintain lean mass (FIG. 6D). Body composition refers to day 21 post-partum maternal fat and lean mass minus day 0 post-partum maternal fat and lean mass. A series of in vivo murine experiments were performed to evaluate whether maternally supplemented NR has the ability to improve maternal and neonatal health and development.

UCP1 = UCP1 expression in mammary tissue; conditions: NR-supplemented vs NC mothers
Description: FIGS. 14A-B. Postpartum NR supplementation promotes mammary gland development (n=5 mice per group) (FIG. 14A). NR increases heat loss by increasing expression of UCP1 (FIG. 14B). […] In addition, the size of the mammary tissue itself is greater in NR-supplemented mothers than in non-supplemented mothers (FIG. 14A).

PEPCK = assay: Pup liver gluconeogenic gene expression; conditions: males and females whose mothers were NR-supplemented
Description: FIGS. 17A-C. 22 day old pups of NR-supplemented mothers have improved post-fasting glucose homoeostasis with higher gluconeogenic gene expression and higher hepatic glycogen storage. Not only are the offspring of NR-supplemented mothers a bit bigger, they also have better glycemic control. This is due to better gluconeogenic gene expression and higher glycogen storage. The order of the bars from left to right are: males of normal chow (NC) mothers (white with light grey outline), followed by males of NR-supplemented mothers (filled light grey), followed by females of NC mothers (white with dark grey outline), followed by females of NR-supplemented mothers (filled dark grey). Earlier it was shown that supplementation of females during their pregnancy and during the lactation period with NR produced pups with better glycemic control. […] Particularly as NR is not directly transmitted to offspring of NR-supplemented mothers, none of these effects of maternally supplemented NR could have been anticipated.

[2] = Open field test of offspring
Procedure: The order of the bars from left to right are: males of normal chow (NC) mothers (white with light grey outline), followed by males of NR-supplemented mothers (filled light grey), followed by females of NC mothers (white with dark grey outline), followed by females of NR-supplemented mothers (filled dark grey). […] These adults were treated identically ever since weaning. The only difference is whether the mother was NR-supplemented for 21 days. They are faster and more adventurous. The order of the bars from left to right are: males of normal chow (NC) mothers (white with light grey outline), followed by males of NR-supplemented mothers (filled light grey), followed by females of NC mothers (white with dark grey outline), followed by females of NR-supplemented mothers (filled dark grey). At 15 days of age, it was observed that the offspring of NR-supplemented mothers were more physically active. In this experiment, the physical activity of male and female offspring of mothers supplemented or not with NR at 15 days of age was quantified. […] At 21 days, the offspring were removed from their mothers and put on normal chow […]. While offspring of NR could have been put on NR chow, we aimed to determine if the 21 day intervention to their mothers was sufficient for a lasting effect on their neurocognitive and/or physical development.

[3] = Body composition of adult offspring; conditions: 90 days old
Procedure: FIGS. 23A-C. 69 days after their mother's intervention, 90 day-old adult offspring of NR-supplemented mothers have less fat mass. The order of the bars from left to right are: males of normal chow (NC) mothers (white with light grey outline), followed by males of NR-supplemented mothers (filled light grey), followed by females of NC mothers (white with dark grey outline), followed by females of NR-supplemented mothers (filled dark grey). At 90 days old, body composition analysis was performed on the mice. […] There is no effect on the total amount of lean mass (23C). Particularly because the maternal intervention produced somewhat bigger weanlings with more fat and lean mass, the protection against age-induced weight gain was unanticipated.

Q: Which maternal food consumption ([1]; day 7-21) does the source give for `NC(=O)c1ccc[n+]([C@@H]2O[C@H](CO)[C@@H](O)[C@H]2O)c1` [NR, nicotinamide riboside] here?
A: as least as much as non-supplemented mothers

Q: And the maternal body weight ([1]; day 21 minus day 0 post-partum)?
A: lost significant weight

Q: And the maternal fat mass ([1]; day 21 minus day 0 post-partum)?
A: lost significant weight, specifically in fat mass

Q: What about the maternal lean mass ([1]; day 21 minus day 0 post-partum) of the same compound?
A: maintained their lean mass

Q: What about the “expression of UCP1 in mammary tissue” value (UCP1) of the same compound?
A: increase in expression

Q: What about the “liver expression of the gluconeogenic bypass gene PEPCK” value (PEPCK) of the same compound?
A: higher

Q: And the “physical activity in open field test” value ([2]; 15 days of age, first 5 minutes)?
A: much more physically active

Q: And the “time in the center of the open field test” value ([2]; 15 days of age, males, middle 5 minute epoch)?
A: significant amount of time in the center

Q: And the “time in the center of open field test” value ([2]; 70 day-old adult males)?
A: less time in the center

Q: And the “immobile time in open field test” value ([2]; 70 day-old adults)?
A: tendency toward less immobile time

Q: And the “speed in open field test” value ([2]; 70 day-old adults)?
A: move faster

Q: And the “distance covered in open field test” value ([2]; 70 day-old adults, 49 days after mother's intervention)?
A: cover more distance

Q: What about the “total amount of lean mass of adult offspring” value [3] of the same compound?
A: no effect

Q: And the “body size of adult offspring” value ([3]; male offspring)?
A: slightly smaller

Q: What about the “adipose tissue of adult offspring” value ([3]; males and females, 69 days after mother's intervention) of the same compound?
A: less adipose tissue
